Test results published in ChEMBL document CHEMBL4476879, “MST1 kinase inhibitors and methods of their use” (2013).
The source made the active and inactive calls.

What was measured:
Format in all cases: functional, organism-based
Mus musculus [1] = test: Anti-inflammatory activity in mouse model of concanavalin A-induced hepatitis assessed as reduction in AST level at 10 to 100 mg/kg, po dosed dosed 16 hrs and 1 hr before and 8 hrs after concanavalin A challenge
Mus musculus [2] = test: Therapeutic anti-inflammatory activity in mouse model of collagen-induced arthritis disease assessed as effect on ankle thickness at 10 to 100 mg/kg, po BID for 21 days starting on day 20 after immunization
Mus musculus [3] = test: Anti-inflammatory activity in mouse model of concanavalin A-induced hepatitis assessed as reduction in IL6 level at 10 to 100 mg/kg, po dosed dosed 16 hrs and 1 hr before and 8 hrs after concanavalin A challenge
Mus musculus [4] = test: Therapeutic anti-inflammatory activity in mouse model of experimental autoimmune encephalomyelitis disease assessed as reduction in disease clinical scores at 100 mg/kg, po for 14 days ( dosed BID on days 9 to 13 and QD on day 14 to 23 starting on day 9 after MOG peptide immunization
Rattus norvegicus [5] = test: Therapeutic anti-inflammatory activity in rat model of collagen-induced arthritis disease assessed as effect on ankle thickness by measuring water displacement at 10 to 25 mg/kg, po BID for 21 days starting on day 11 after immunization
Mus musculus [6] = test: Prophylactic anti-inflammatory activity in mouse model of experimental autoimmune encephalomyelitis disease assessed as reduction in disease clinical scores at 100 mg/kg, po for 22 days (dosed BID on days-1 to 9 and QD on days 10 to 21) starting on day (-1) before MOG peptide immunization
Mus musculus [7] = test: Therapeutic anti-inflammatory activity in mouse model of collagen-induced arthritis disease assessed as reduction in cumulative arthritis scores at 10 to 100 mg/kg, po BID for 21 days starting on day 20 after immunization
Mus musculus [8] = test: Anti-inflammatory activity in mouse model of concanavalin A-induced hepatitis assessed as reduction in ALT level at 10 to 100 mg/kg, po dosed dosed 16 hrs and 1 hr before and 8 hrs after concanavalin A challenge
Mus musculus [9] = test: Anti-inflammatory activity in mouse model of concanavalin A-induced hepatitis assessed as reduction in MCP1 level at 10 to 100 mg/kg, po dosed dosed 16 hrs and 1 hr before and 8 hrs after concanavalin A challenge
Mus musculus [10] = test: Prophylactic anti-inflammatory activity in mouse model of experimental autoimmune encephalomyelitis disease assessed as reduction in disease clinical scores at 10 mg/kg, po BID for 22 days starting on day (-1) before MOG peptide immunization
Mus musculus [11] = test: Prophylactic anti-inflammatory activity in mouse model of experimental autoimmune encephalomyelitis disease assessed as reduction in disease clinical scores at 30 mg/kg, po BID for 22 days starting on day (-1) before MOG peptide immunization
Rattus norvegicus [12] = test: Therapeutic anti-inflammatory activity in rat model of collagen-induced arthritis disease assessed as effect on ankle thickness by measuring water displacement at 50 mg/kg, po QD for 21 days starting on day 11 after immunization
Rattus norvegicus [13] = test: Therapeutic anti-inflammatory activity in rat model of collagen-induced arthritis disease assessed as reduction in cumulative arthritis scores at 10 to 25 mg/kg, po BID for 21 days starting on day 11 after immunization
Mus musculus [14] = test: Anti-inflammatory activity in mouse model of concanavalin A-induced hepatitis assessed as effect on IFNgamma level at 10 to 100 mg/kg, po dosed dosed 16 hrs and 1 hr before and 8 hrs after concanavalin A challenge
Rattus norvegicus [15] = test: Therapeutic anti-inflammatory activity in rat model of collagen-induced arthritis disease assessed as reduction in cumulative arthritis scores at 50 mg/kg, po QD for 21 days starting on day 11 after immunization
Mus musculus [16] = test: Therapeutic anti-inflammatory activity in mouse model of experimental autoimmune encephalomyelitis disease assessed as reduction in disease clinical scores at 30 mg/kg, po BID for 14 days starting on day 9 after MOG peptide immunization
Mus musculus [17] = test: Anti-inflammatory activity in mouse model of concanavalin A-induced hepatitis assessed as reduction in TNFalpha level at 10 to 100 mg/kg, po dosed dosed 16 hrs and 1 hr before and 8 hrs after concanavalin A challenge
Rattus norvegicus [18] = test: Therapeutic anti-inflammatory activity in rat model of experimental autoimmune encephalomyelitis disease assessed as reduction in disease severity clinical scores at 10 to 50 mg/kg, po BID starting on day 9 after MOG peptide immunization
Mus musculus [19] = test: Therapeutic anti-inflammatory activity in mouse model of experimental autoimmune encephalomyelitis disease assessed as reduction in disease clinical scores at 10 mg/kg, po BID for 14 days starting on day 9 after MOG peptide immunization
Mus musculus [20] = test: Therapeutic anti-inflammatory activity in mouse model of experimental autoimmune encephalomyelitis disease assessed as reduction in disease clinical scores at 3 to 10 mg/kg, sc BID for 12 days starting on day 9 after MOG peptide immunization
Mus musculus [21] = test: Therapeutic anti-inflammatory activity in mouse model of collagen-induced arthritis disease assessed as effect on ankle thickness at 10 to 30 mg/kg, sc BID for 3 weeks days starting on day 20 after collagen immunization
Mus musculus [22] = test: Therapeutic anti-inflammatory activity in mouse model of collagen-induced arthritis disease assessed as effect on ankle thickness at 10 to 50 mg/kg, po BID for 3 weeks days starting on day 20 after collagen immunization
Mus musculus [23] = test: Therapeutic anti-inflammatory activity in mouse model of collagen-induced arthritis disease assessed as reduction in cumulative arthritis scores at 10 to 30 mg/kg, sc BID for 3 weeks days starting on day 20 after collagen immunization
Mus musculus [24] = test: Therapeutic anti-inflammatory activity in mouse model of collagen-induced arthritis disease assessed as reduction in cumulative arthritis scores at 10 to 50 mg/kg, po BID for 3 weeks days starting on day 20 after collagen immunization
Mus musculus [25] = test: Therapeutic anti-inflammatory activity in mouse model of experimental autoimmune encephalomyelitis disease assessed as reduction in disease clinical scores at 3 to 30 mg/kg, po BID for 21 days starting on day 9 after MOG peptide immunization
Mus musculus [26] = test: Anti-inflammatory activity in mouse model of concanavalin A-induced hepatitis assessed as reduction in TNFalpha level at 1 to 10 mg/kg, po dosed dosed 16 hrs and 1 hr before and 8 hrs after concanavalin A challenge
Mus musculus [27] = test: Anti-inflammatory activity in mouse model of concanavalin A-induced hepatitis assessed as reduction in MCP1 level at 1 to 10 mg/kg, po dosed dosed 16 hrs and 1 hr before and 8 hrs after concanavalin A challenge
Mus musculus [28] = test: Anti-inflammatory activity in mouse model of concanavalin A-induced hepatitis assessed as effect on IFNgamma level at 1 to 10 mg/kg, po dosed dosed 16 hrs and 1 hr before and 8 hrs after concanavalin A challenge
Mus musculus [29] = test: Anti-inflammatory activity in mouse model of concanavalin A-induced hepatitis assessed as reduction in ALT level at 1 to 10 mg/kg, po dosed dosed 16 hrs and 1 hr before and 8 hrs after concanavalin A challenge
Mus musculus [30] = test: Anti-inflammatory activity in mouse model of concanavalin A-induced hepatitis assessed as reduction in AST level at 1 to 10 mg/kg, po dosed dosed 16 hrs and 1 hr before and 8 hrs after concanavalin A challenge
Mus musculus [31] = test: Anti-inflammatory activity in mouse model of concanavalin A-induced hepatitis assessed as reduction in IL6 level at 1 to 10 mg/kg, po dosed dosed 16 hrs and 1 hr before and 8 hrs after concanavalin A challenge
Rattus norvegicus [32] = test: Therapeutic anti-inflammatory activity in rat model of experimental autoimmune encephalomyelitis disease assessed as reduction in disease severity clinical scores at 0.3 to 10 mg/kg, po QD starting on day 10 after MOG peptide immunization

Measured: Activity

CN(C1CC1)S(=O)(=O)c1ccc(-c2cnc(N)c(-c3ccc4c(c3)CCNC4=O)c2)cc1
active: Mus musculus [1] | Mus musculus [2] | Mus musculus [3] | Mus musculus [4] | Rattus norvegicus [5] | Mus musculus [6] | Mus musculus [7] | Mus musculus [8] | Mus musculus [9] | Mus musculus [10] | Mus musculus [11] | Rattus norvegicus [12] | Rattus norvegicus [13] | Mus musculus [14] | Rattus norvegicus [15] | Mus musculus [16] | Mus musculus [17] | Rattus norvegicus [18] Dose-dependent effect | Mus musculus [19]

CN(C1CC1)S(=O)(=O)c1ccc(-c2cnc(N)c(-c3ccc4c(c3)CCNC4=O)n2)cc1
active: Mus musculus [20] Dose-dependent effect | Mus musculus [21] | Mus musculus [22] | Mus musculus [23] | Mus musculus [24] | Mus musculus [25] Dose-dependent effect

N#CC1(c2ccc(-c3cnc(N)c(-c4ccc5c(c4)CCNC5=O)n3)cc2)CC1
active: Mus musculus [26] | Mus musculus [27] | Mus musculus [28] | Mus musculus [29] | Mus musculus [30] | Mus musculus [31] | Rattus norvegicus [32]
